The target of assay [1] is T1, Androgen receptor (Homo sapiens, UniProt P10275).
T1 sequence (P10275 whole entry): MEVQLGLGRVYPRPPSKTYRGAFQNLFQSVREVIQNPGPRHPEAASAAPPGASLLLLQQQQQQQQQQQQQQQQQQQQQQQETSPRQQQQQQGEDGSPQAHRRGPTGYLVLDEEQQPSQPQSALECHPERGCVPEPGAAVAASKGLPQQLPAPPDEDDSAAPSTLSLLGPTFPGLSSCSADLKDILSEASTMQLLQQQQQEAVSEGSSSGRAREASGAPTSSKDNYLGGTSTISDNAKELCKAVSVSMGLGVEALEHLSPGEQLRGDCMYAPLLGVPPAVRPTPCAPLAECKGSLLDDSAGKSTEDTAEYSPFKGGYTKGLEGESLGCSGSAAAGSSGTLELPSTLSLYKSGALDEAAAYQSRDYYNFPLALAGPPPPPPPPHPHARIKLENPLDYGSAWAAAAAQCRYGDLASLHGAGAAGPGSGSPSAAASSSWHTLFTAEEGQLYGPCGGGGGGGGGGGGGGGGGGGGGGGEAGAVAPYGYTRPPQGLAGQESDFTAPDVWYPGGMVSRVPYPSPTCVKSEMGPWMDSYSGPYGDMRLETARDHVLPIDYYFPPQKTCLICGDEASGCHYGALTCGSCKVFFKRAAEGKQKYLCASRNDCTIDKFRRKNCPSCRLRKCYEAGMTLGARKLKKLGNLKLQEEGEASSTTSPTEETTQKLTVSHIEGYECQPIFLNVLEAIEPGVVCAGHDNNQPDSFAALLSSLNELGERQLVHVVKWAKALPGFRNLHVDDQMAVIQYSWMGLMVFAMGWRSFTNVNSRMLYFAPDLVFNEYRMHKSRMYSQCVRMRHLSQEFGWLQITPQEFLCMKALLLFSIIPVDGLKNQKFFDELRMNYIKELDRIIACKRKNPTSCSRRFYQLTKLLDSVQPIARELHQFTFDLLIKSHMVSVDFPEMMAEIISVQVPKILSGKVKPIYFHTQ
In words: Antagonist activity against pSG5-tagged human androgen receptor expressed in COS1 cells assessed as reduction in receptor-mediated transcriptional activity by AR-regulated rat probasin promoter fragment driven firefly luciferase reporter assay. Type of assay: cell-based, COS-1.

The target of assay [2] is T1, Androgen receptor. The experiment in a line: Displacement of [3H]R1881 from pSG5-tagged human androgen receptor expressed in COS1 cells assessed as relative binding inhibition. In kind it is cell-based, COS-1. For orientation: Loss of bound radioactivity is the signal in a displacement assay; it reports binding, not function.

The structures appear in SMILES notation.

For orientation: IC50 means the point on the concentration scale where inhibition reaches its midpoint.

Turning to `CS(=O)(=O)NC1C[C@@H]2CC[C@@H](C1)N2c1ccc(C#N)c(C(F)(F)F)c1` (relative stereo), the IC50 at Androgen receptor [1] and on Androgen receptor [2] was 2.65 µM each time.
Take `N#Cc1ccc(N2[C@H]3CC[C@H]2CC(NCc2ccccc2)C3)cc1C(F)(F)F` (relative stereo): the IC50 at Androgen receptor [1] and on Androgen receptor [2] was 0.233 µM throughout.
As to `N#Cc1ccc(N2[C@@H]3CC[C@H]2C[C@@H](O)C3)cc1Cl`, the IC50 on Androgen receptor [1] and on Androgen receptor [2] was 0.0317 µM in each case.
As to `N#Cc1ccc(N2[C@H]3CC[C@H]2CC(O)C3)cc1C(F)(F)F` (relative stereo), the half-inhibitory concentration (IC50) on Androgen receptor [1] and on Androgen receptor [2] was 0.0398 µM each time.
Consider `CC1(O)C[C@@H]2CC[C@@H](C1)N2c1ccc(C#N)c(C(F)(F)F)c1` (relative stereo), for which the IC50 on Androgen receptor [1] and on Androgen receptor [2] was 0.0293 µM in each case.
As for `CCS(=O)(=O)NC1C[C@@H]2CC[C@@H](C1)N2c1ccc(C#N)c(C(F)(F)F)c1` (relative stereo), the IC50 at Androgen receptor [1] and at Androgen receptor [2] was 2.04 µM in each case.
Regarding `N#Cc1ccc(N2C3CCC2CC(=O)C3)cc1C(F)(F)F`, the IC50 at Androgen receptor [1] and at Androgen receptor [2] was 0.066 µM throughout.
`Cc1c(N2C3CCC2CC(C)(O)C3)ccc(C#N)c1Cl` (stereo unspecified): the IC50 at Androgen receptor [1] and at Androgen receptor [2] was 0.00211 µM in each case.
